# Patent publication US10202421B2, “Tumor-targeting compounds” (SKU Asset Management GmbH, priority 2009, dated 2019)
# No end group written: not given here. *: point of attachment. For = O=C*
# Columns and labels:
# human EGFR/Erb-B1 = molecular target: T1, human EGFR/Erb-B1 (Homo sapiens, UniProt P00533); experiment: Fluorescence spectroscopy binding/displacement test with NBD-labelled 12mer tracer and EGFR
# T1 construct: purchased
# Solubility at pH 7 = format: physicochemical
# From the text: (§1) The peptide SEQ ID NO 1, […] showing specific binding activity to the tumor marker Erb-B1/EGFR was chosen as binder and the macrophage-activating peptide formyl-MLP as effector to synthesize structure 1. The structure was synthesized chemically by standard methods known in the art and purified by ion exchange chromatography. Chemical identity was verified by mass spectrometry.
# granulocytes = experiment: Chemotaxis assay (trans-well assay for macrophage mobilization); format: cell-based
# From the text: Concentration-dependent granulocyte activation of N-formyl peptide conjugates has been compared with activation of the peptide only. Each series of experiments has been repeated 3 times with 200,000 granulocytes each. […] Therefore, variations in the formyl peptide amino acid composition, e.g. different amino acid residues at position 3 (phenylalanine, proline) as in structure 1 and structure 2, provide a further means to tune the immune response.
# [1] = Size exclusion chromatography and dynamic light scattering analysis; format: physicochemical; conditions: size exclusion chromatography, dynamic light scattering
# From the text: as §1
compound,measurement,setting,value
CC[C@H](C)[C@H](NC(=O)[C@@H](NC(=O)[C@H](CC(N)=O)NC(=O)[C@H](CCC(N)=O)NC(=O)[C@@H]1CCCN1C(=O)[C@@H](NC(=O)[C@H](Cc1ccc(O)cc1)NC(=O)CNC(=O)[C@H](Cc1ccc(O)cc1)NC(=O)[C@H](Cc1c[nH]c2ccccc12)NC(=O)[C@H](Cc1c[nH]cn1)NC(=O)[C@@H](N)Cc1ccc(O)cc1)[C@@H](C)O)C(C)C)C(=O)NCCOCCOCCOCCOCCOCCOCCOCCOCCOCCOCCOCCOCCOCCOCCOCCOCCOCCOCCOCCOCCOCCOCCOCCOCCOCCOCCOCCOCCC(=O)NCCCC[C@H](NC(=O)[C@H](CCCCNC(=O)CCOCCOCCOCCOCCOCCOCCOCCOCCOCCOCCOCCOCCOCCOCCOCCOCCOCCOCCOCCOCCOCCOCCOCCOCCOCCOCCOCCOCCNC(=O)[C@@H](NC(=O)[C@@H](NC(=O)[C@H](CC(N)=O)NC(=O)[C@H](CCC(N)=O)NC(=O)[C@@H]1CCCN1C(=O)[C@@H](NC(=O)[C@H](Cc1ccc(O)cc1)NC(=O)CNC(=O)[C@H](Cc1ccc(O)cc1)NC(=O)[C@H](Cc1c[nH]c2ccccc12)NC(=O)[C@H](Cc1c[nH]cn1)NC(=O)[C@@H](N)Cc1ccc(O)cc1)[C@@H](C)O)C(C)C)[C@@H](C)CC)NC(=O)[C@@H]1CCCN1C(=O)[C@H](CC(C)C)NC(=O)[C@H](CCSC)NC=O)C(=O)O [structure 1],displacement of fluorescent tracer peptide from EGFR complex,human EGFR/Erb-B1; 1 µM EGFR/NBD-12mer complex titrated with increasing concentrations (FIG. 5d),displacement of the fluorescent tracer
same,KD value for the interaction with EGFR,"human EGFR/Erb-B1; displacement of fluorescently labelled 12mer from EGFR complex, estimated",low nM range
same,solubility,Solubility at pH 7,≤ 10000 µg/mL
same,macrophage activation profile,granulocytes; trans-well assay,demonstrated
same,oligomers or large aggregates,[1],no oligomers or large aggregates
N-formyl-Met-Leu-Phe (For-Met-Leu-Phe) [fMLF],stimulation of granulocyte chemotaxis,granulocytes; separate experiment,can be stimulated
same,chemotactic response compared to fMLP,"granulocytes; separate experiment, granulocytes",slightly higher
N-formyl-Met-Leu-Pro (For-Met-Leu-Pro) [fMLP],stimulation of granulocyte chemotaxis,granulocytes; separate experiment,can be stimulated
"YHWYGYTPQNVI [unlabelled peptide, reference compound]",displacement of fluorescent tracer peptide from EGFR complex (fluorescence intensity),"human EGFR/Erb-B1; EGFR-tracer complex 50 nM, PBS pH 7.5, 10 fold excess of unlabelled peptide (FIG. 5c)",decrease in fluorescence intensity
